Data as given in PMC6478823, “A suite of phenotypic assays to ensure pipeline diversity when prioritizing drug-like Cryptosporidium growth inhibitors” (Nature Communications, 2019).
Like-named read-outs stand apart in the source and are kept apart here.

Experiments:
[1] = tested on: C. parvum DMC1 expression; experiment: Sexual differentiation assay (DMC1 expression); type: cell-based, Cryptosporidium parvum; details: compound at asexual EC90, 48-72 h; for Asexual to sexual differentiation: Mean % DMC1 inhibition (normalized to host nuclei), Average: average of replicates; for Asexual to sexual differentiation: Mean % DMC1 inhibition (normalized to host nuclei), Replicate 1a: single replicate 1; for Asexual to sexual differentiation: Mean % DMC1 inhibition (normalized to host nuclei), Replicate 2a: single replicate 2; for Asexual to sexual differentiation: Mean % DMC1 inhibition (normalized to host nuclei), Replicate 3a: single replicate 3
Source text: We utilized DMC1 as a marker of C. parvum sexual development, and used the anti-DMC1 monoclonal antibody to develop a moderate-throughput high-content microscopy assay for characterizing anticryptosporidial compounds (Fig. 6a). […] Therefore, in order to enable numerical comparison of the ability of compounds to block sexual development with moderate throughput, we adopted a strategy of reporting the percent inhibition of DMC1 expression by the previously determined EC90 of each compound in the standard asexual development assay (Fig. 6c and Supplementary Table 2).
Fig. 6 Assay to measure asexual-to-sexual-stage conversion. a Schematic of the experimental approach. […] For b and c the mean and SD combined from at least two biological replicates with four technical replicates per experiment are shown. […] At given time points post-infection, infected cells were washed 3 times with PBS containing 111 mM of D-galactose, fixed for 15 min at room temperature with 4% paraformaldehyde in PBS, and permeabilized with 0.25% triton X-100 in PBS for 10 min at 37 °C. Cells were then washed 3 times with PBS and blocked at least overnight at 4 °C with 1% BSA in PBS (blocking buffer). Cells were stained with monoclonal antibody (1H10G7), either neat culture supernatant or 12.8 µg/mL of purified IgG in blocking buffer for 1 h at 37 °C, followed by 2 washes with PBS. Cells were then co-stained with a 1:500 dilution (4 µg/mL) of Alexa Fluor 568 goat anti-mouse IgG (Invitrogen, catalog# A-11004) and 1.33 µg/mL fluorescein-labeled Vicia villosa lectin (Vector Laboratories, catalog# FL-1231) diluted in blocking buffer for 1 h at 37 °C. Stains were then removed and 0.09 mM Hoechst 33258 (AnaSpec, catalog# AS-83219) also diluted in blocking buffer was added for another 15 min at 37 °C, followed by 2 PBS washes and imaging on a Nikon Eclipse Ti2000 epifluorescence microscope run with NIS-Elements Advanced Research software (Nikon, USA) and equipped with an EXi blue fluorescent microscopy camera (QImaging, Canada). For enumerating parasites, tiled 2 × 2 images with 15% overlapping edges were taken using a 40 × dry objective (0.7 NA), and for finer details, Z stack images were acquired using a 60 × oil objective (1.4 NA). Lectin positive cells in focus were first counted, followed by DMC1.
For compound dose-response studies, the same assay was performed in 384-well plates and imaged using a 20 × dry objective (NA = 0.45). Tiled 4 × 4 to 6 × 6 images were taken. Images were analyzed using ImageJ software and the custom macro provided in Supplementary Method 2.

C. parvum = experiment: 48 h Cryptosporidium growth inhibition assay; type: cell-based, Cryptosporidium parvum; details: compound added 3 h post-infection, read at 48 h
Source text: As a first step in developing specific Cryptosporidium mode of action assays, we conducted a series of light microscopy time-lapse and transmission electron microscopy (TEM) time course experiments in order to precisely define C. parvum development within the HCT-8 cell culture system. […] This synchronicity was exploited by modifying a previously developed high-content microscopy assay. These assay modifications enabled the evaluation of several key events within the life cycle: host cell invasion, intracellular replication, host cell egress and establishment of new parasitophorous vacuoles, and sexual differentiation. […] Since the methods all used automated liquid handling, imaging, and image analysis, the assay methods all incorporated nuclear staining to monitor host cell numbers and enable recognition of HCT-8 cell monolayer damage, for example as an artifact from a malfunctioning plate washer or from unanticipated cytotoxicity of the compounds.
Human ileocecal adenocarcinoma (HCT-8) cells were purchased from ATCC (catalog# CCL-244) and cultured in ATCC modified RPMI-1640 medium (Gibco, catalog# A10491–01), supplemented with 10% heat-inactivated fetal bovine serum (Sigma-Aldrich, catalog# 12306C) and 120 U/mL penicillin and 120 μg/mL streptomycin (Gibco, catalog# 15140-122) (culture media). […] For all experiments, HCT-8 cells between passages 9 and 39 were used. C. parvum (Iowa isolate) oocysts were purchased from Bunchgrass Farm (Deary, ID), stored at 4 °C and used within 5 months of collection from an infected calf. To induce excystation, oocysts were first treated with 10 mM hydrochloric acid for 10 min at 37 °C, spun at 14,000×g for 4.5 min at room temperature, treated with 2 mM sodium taurocholate for 10 min at 16 °C, spun as before, and resuspended in culture media for infection.
A modification of a previously reported immunofluorescence assay was used to determine the EC50 and EC90 of compounds[13]. HCT-8 cells were grown to ≥ 90% confluence in 384-well plates (Corning, catalog# 353962) and infected with 5500 oocysts per well after they were induced for excystation as described above. Different concentrations of compounds were added 3 h post-infection and plates were incubated for another 45 h in a 5% CO2 incubator at 37 °C. Wells were then washed 3 times with PBS containing 111 mM D-galactose (PBS-D-gal), fixed with 4% paraformaldehyde (PFA) in PBS for 15 min at room temperature, permeabilized with 0.25% Triton X-100 for 10 min at 37 °C, washed 3 times with PBS with 0.1% Tween 20, and blocked with 4% bovine serum albumin (BSA) in PBS for 2 h at 37 °C or 4 °C overnight. Parasitophorous vacuoles were stained with 1.33 µg/mL of fluorescein-labeled Vicia villosa lectin (Vector Laboratories, catalog# FL-1231) diluted in 1% BSA in PBS with 0.1% Tween 20 for 1 h at 37 °C, followed by addition of Hoechst 33258 (AnaSpec, catalog# AS-83219) at 0.09 mM diluted in water for another 15 min at 37 °C. Wells were then washed 5 times with PBS containing 0.1% Tween 20. A Nikon Eclipse Ti2000 epifluorescence microscope with an automated stage was programmed using NIS-Elements Advanced Research software (Nikon, USA) to focus on the center of each well and take a 3 × 3 or 6 × 6 composite image using an EXi blue fluorescence microscopy camera (QImaging, Canada) with a 20 × objective (NA = 0.45). Nuclei and parasite images were separately exported as.tif files and analyzed using macros developed on the ImageJ platform (National Institutes of Health)[13].

[2] = read-out: Regular 3 to 48 h assay in vitro EC90, C. parvum in HCT-8 cells
[3] = Cryptosporidium parvum, HCT-8, read-out: Regular 3 to 48 h assay in vitro EC90, C. parvum in HCT-8 cells

| SMILES | Asexual to sexual differentiation: Mean % DMC1 inhibition (normalized to host nuclei), Average [1] [%] | Asexual to sexual differentiation: Mean % DMC1 inhibition (normalized to host nuclei), Replicate 1a [1] [%] | Asexual to sexual differentiation: Mean % DMC1 inhibition (normalized to host nuclei), Replicate 2a [1] [%] | Asexual to sexual differentiation: Mean % DMC1 inhibition (normalized to host nuclei), Replicate 3a [1] [%] | EC90 (C. parvum; [2]) [µM] | EC90 (C. parvum; [3]) [µM] |
| --- | --- | --- | --- | --- | --- | --- |
| O=C(Nc1ccc(Cl)c(Cl)c1)N1CCN(c2ccc3nncn3n2)CC1 [D-28] | 81.40 | 86.90 | 86.80 | 70.51 | 1.5 | – |
| CC(C)/N=c1\cc2n(-c3ccc(Cl)cc3)c3ccccc3nc-2cc1Nc1ccc(Cl)cc1 [Clofazimine] | 89.18 | 91.44 | 86.93 | – | – | 19.6 |
| CC(=NOCCN)c1cccc(C(C)(C)NC(=O)Nc2ccc(Cl)c(C(F)(F)F)c2)c1 [P257] | 70.52 | 67.08 | 73.96 | – | 34.3 | – |
| Oc1c(C(Nc2ccccn2)c2cccc(Oc3ccccc3)c2)ccc2cccnc12 (stereo not drawn) [A-2] | 36.33 | 56.25 | 16.42 | – | 1.34 | – |
| Cc1cc(/C=C/c2ccc3cc(N(C)C)ccc3[n+]2C)c(C)n1-c1ccccc1 [Pyrvinium pamoate] | 68.07 | 51.94 | 84.21 | – | – | 3.21 |
| C[C@H]1CCC[C@H](C[C@H]2Cc3cc(O)cc(O)c3C(=O)O2)O1 [Cladosporin] | 94.16 | 91.92 | 96.40 | – | – | 0.49 |
| O=C(NC(c1ccccc1)c1ccc2cccnc2c1O)c1ccccc1 (stereo not drawn) [A-5] | 65.35 | 63.04 | 67.67 | – | 4.35 | – |
| c1ccc(CNc2nc(NCc3ccccc3)c3ccccc3n2)cc1 [B-23] | -6.40 | -17.01 | 2.19 | -4.38 | 10.8 | – |
| c1ccc(CNc2nc(NC3CCCC3)nc3ccccc23)cc1 [B-5] | 7.84 | 11.99 | -2.17 | 13.72 | 7.22 | – |
| CCC(C)n1ncn(-c2ccc(N3CCN(c4ccc(OCC5COC(Cn6cncn6)(c6ccc(Cl)cc6Cl)O5)cc4)CC3)cc2)c1=O (stereo not drawn) [Itraconazole] | 63.93 | 87.85 | 40.00 | – | – | 7.24 |
| CN(C)C[C@H](O)Cn1c2ccc(Br)cc2c2cc(Br)ccc21 (racemic) [Wiskostatin] | 45.76 | 43.95 | 47.58 | – | 11.3 | 11.3 |
| Cc1cccc(-n2ncc3c(=O)[nH]c(-n4nc(C)cc4NC(=O)C4CC4)nc32)c1 [C-4] | 64.12 | 60.65 | 67.59 | – | 5.17 | – |
| O=C(Nc1nc(-c2ccccn2)cs1)c1ccccc1Br [MMV665909] | 53.05 | 56.13 | 49.96 | – | 6.84 | – |
| Cc1cccc(-n2ncc3c(=O)[nH]c(-n4nc(C)cc4NC(=O)C4CCCC4)nc32)c1 [C-5] | 52.89 | 39.80 | 65.99 | – | 4.99 | – |
| O=C(CC1NCCCC1O)Cn1cnc2cc(Br)c(Cl)cc2c1=O (stereo not drawn) [Halofuginone] | 68.25 | 51.29 | 73.88 | 79.59 | – | 0.34 |
| CCOc1ccc2cc(-c3nn(CC4CCN(C)CC4)c4ncnc(N)c34)ccc2c1 [BKI-1294] | 45.56 | 58.94 | 32.18 | – | 22.4 | – |
